Source: patent US20250215039A1, “NUCLEOSIDES FOR TREATING CANCER” (PRIMEFOUR THERAPEUTICS, INC., priority 2022, published 2025)
Like-named read-outs stand apart in the source and are kept apart here.

Experiments:
cancer cell lines = test: Cancer cell proliferation activity (CellTiterGlo, 72 h); format: cell-based; conditions: 72 h, 72 h, read-out: IC50 cell proliferation
Method in brief: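 Readout is CellTiterGlo luminescence after 72 h compound exposure (0.1% DMSO final), started one day post-seeding, at 37 °C.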

[1] = biological target: human cytidine deaminase (CDA) (Homo sapiens, UniProt P32320); test: Metabolism by human cytidine deaminase (CDA), substrate absorbance at 290 nm; conditions: rate of substrate conversion at 200 μM; could not be fitted
human cytidine deaminase (CDA), sequence (P32320 whole entry): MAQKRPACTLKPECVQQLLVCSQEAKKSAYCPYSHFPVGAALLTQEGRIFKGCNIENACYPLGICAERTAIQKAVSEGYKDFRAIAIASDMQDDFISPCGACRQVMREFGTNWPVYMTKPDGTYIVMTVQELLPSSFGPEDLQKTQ

IC50 (cancer cell lines; 5637 (bladder)): 450 nM | IC50 (cancer cell lines; CLS439 (bladder)): 2270 nM | IC50 (cancer cell lines; HS729 (muscle)): 580 nM | IC50 (cancer cell lines; J82 (bladder)): 760 nM | IC50 (cancer cell lines; JAR (placenta)): > 50000 nM | IC50 (cancer cell lines; MT3 (breast)): 80 nM | IC50 (cancer cell lines; PANCI (pancreas)): 620 nM | IC50 (cancer cell lines; PC3 (prostate)): 180 nM | IC50 (cancer cell lines; RD (muscle)): 1030 nM | IC50 (cancer cell lines; T24 (bladder)): 290 nM | IC50 (cancer cell lines; Homo sapiens, A204, 72 h, A204 (muscle)): 20 nM | IC50 (cancer cell lines; Homo sapiens, A549, 72 h, A549 (lung)): 440 nM | IC50 (cancer cell lines; Homo sapiens, A2780, 72 h, A2780 (ovary)): 720 nM | IC50 (cancer cell lines; Homo sapiens, A-375, 72 h, A375 (skin)): 710 nM | IC50 (cancer cell lines; Homo sapiens, A-431, 72 h, A431 (skin)): 470 nM | IC50 (cancer cell lines; Homo sapiens, ACHN, ACHN (kidney)): 390 nM | IC50 (cancer cell lines; Homo sapiens, ASPC1, 72 h, ASPC1 (pancreas)): 580 nM | IC50 (cancer cell lines; Homo sapiens, BT-20, 72 h, BT20 (breast)): 580 nM | IC50 (cancer cell lines; Homo sapiens, BXPC-3, 72 h, BXPC3 (pancreas)): 540 nM | IC50 (cancer cell lines; Homo sapiens, C-33-A, C33A (endometrial)): 240 nM | IC50 (cancer cell lines; Homo sapiens, CAKI-1, 72 h, CAKI1 (kidney)): 110 nM | IC50 (cancer cell lines; Homo sapiens, COLO 205, 72 h, COLO205 (colon)): 210 nM | IC50 (cancer cell lines; Homo sapiens, Caco-2, 72 h, CACO2 (colon)): > 50000 nM | IC50 (cancer cell lines; Homo sapiens, Calu-6, 72 h, CALU6 (lung)): 720 nM | IC50 (cancer cell lines; Homo sapiens, DU-145, 72 h, DU145 (prostate)): 310 nM | IC50 (cancer cell lines; Homo sapiens, EFO-21, 72 h, EFO21 (ovary)): 790 nM | IC50 (cancer cell lines; Homo sapiens, Granta-519, 72 h, GRANTA-519 (hematological)): 70 nM | IC50 (cancer cell lines; Homo sapiens, HCT-15, 72 h, HCT15 (colon)): 460 nM | IC50 (cancer cell lines; Homo sapiens, HCT-116, 72 h, HCT116 (colon)): 470 nM | IC50 (cancer cell lines; Homo sapiens, HEK293, 72 h, HEK293 (kidney)): > 50000 nM | IC50 (cancer cell lines; Homo sapiens, HT-1080, 72 h, HT1080 (connective tissue)): 380 nM | IC50 (cancer cell lines; Homo sapiens, HeLa, HELA (endometrial)): 1000 nM | IC50 (cancer cell lines; Homo sapiens, HepG2, 72 h, HEPG2 (liver)): 1000 nM | IC50 (cancer cell lines; Homo sapiens, Hs-578T, HS578T (breast)): 970 nM | IC50 (cancer cell lines; Homo sapiens, IGROV-1, 72 h, IGROV1 (ovary)): 510 nM | IC50 (cancer cell lines; Homo sapiens, JIMT-1, 72 h, JIMT1 (breast)): 190 nM | IC50 (cancer cell lines; Homo sapiens, Kasumi 1, 72 h, KASUMI-1 (hematological)): 270 nM | IC50 (cancer cell lines; Homo sapiens, L-363, 72 h, L-363 (hematological)): > 50000 nM | IC50 (cancer cell lines; Homo sapiens, LoVo, LOVO (colon)): 290 nM | IC50 (cancer cell lines; Homo sapiens, MDA-MB-231, 72 h, MDAMB231 (breast)): 100 nM | IC50 (cancer cell lines; Homo sapiens, MDA-MB-435, 72 h, MDAMB435 (skin)): 1300 nM | IC50 (cancer cell lines; Homo sapiens, MDA-MB-436, 72 h, MDAMB436 (breast)): 950 nM | IC50 (cancer cell lines; Homo sapiens, MG-63, 72 h, MG63 (bone)): 480 nM | IC50 (cancer cell lines; Homo sapiens, MINO, MINO (hematological)): 60 nM | IC50 (cancer cell lines; Homo sapiens, MV4-11, 72 h, MV4-11 (hematological)): 840 nM | IC50 (cancer cell lines; Homo sapiens, NCI-H23, 72 h, NCI-H23 (lung)): 720 nM | IC50 (cancer cell lines; Homo sapiens, NCI-H292, 72 h, NCIH292 (lung)): 920 nM | IC50 (cancer cell lines; Homo sapiens, NCI-H460, 72 h, NCIH460 (lung)): 770 nM | IC50 (cancer cell lines; Homo sapiens, OVCAR-3, 72 h, OVCAR3 (ovary)): 640 nM | IC50 (cancer cell lines; Homo sapiens, PLC-PRF-5, 72 h, PLCPRF5 (liver)): > 50000 nM | IC50 (cancer cell lines; Homo sapiens, Panc1005, 72 h, PANC1005 (pancreas)): > 50000 nM | IC50 (cancer cell lines; Homo sapiens, Ramos, RAMOS (hematological)): 240 nM | IC50 (cancer cell lines; Homo sapiens, SAOS-2, 72 h, SAOS2 (bone)): 110 nM | IC50 (cancer cell lines; Homo sapiens, SF-268, 72 h, SF268 (brain)): 260 nM | IC50 (cancer cell lines; Homo sapiens, SK-BR-3, 72 h, SKBR3 (breast)): 260 nM | IC50 (cancer cell lines; Homo sapiens, SK-HEP1, 72 h, SKHEP1 (liver)): 320 nM | IC50 (cancer cell lines; Homo sapiens, SK-LMS-1, 72 h, SKLMS1 (uterus)): 860 nM | IC50 (cancer cell lines; Homo sapiens, SK-N-SH, SKNSH (brain)): > 50000 nM | IC50 (cancer cell lines; Homo sapiens, SNB-75, 72 h, SNB75 (brain)): 550 nM | IC50 (cancer cell lines; Homo sapiens, SU-DHL10, 72 h, SU-DHL-10 (hematological)): 560 nM | IC50 (cancer cell lines; Homo sapiens, SU-DHL-6, 72 h, SU-DHL-6 (hematological)): 310 nM | IC50 (cancer cell lines; Homo sapiens, THP-1, 72 h, THP-1 (hematological)): 650 nM | IC50 (cancer cell lines; Homo sapiens, U-87 MG, U87MG (brain)): 400 nM | IC50 (cancer cell lines; Homo sapiens, UO-31, 72 h, UO31 (kidney)): 550 nM | IC50 (cancer cell lines; Homo sapiens, WSU-NHL, WSU-NHL (hematological)): 150 nM | IC50 (cancer cell lines; NCI-H358M, NCIH358M (lung)): 120 nM | IC50 (cancer cell lines; PBMC, PBMC (hematological)): 710 nM | IC50 (cancer cell lines; RD-ES, RDES (bone)): 1900 nM | substrate conversion by CDA (Inactive) [1]: Inactive
Structure (SMILES): Nc1ccn([C@H]2C[C@H](O)[C@](CO)(CF)O2)c(=O)n1 [Cpd. No. 198, 4-amino-1-((2R,4S,5R)-5-(fluoromethyl)-4-hydroxy-5-(hydroxymethyl)tetrahydrofuran-2-yl)pyrimidin-2(1H)-one]
